Test results reported in patent publication US11286263B2, “Macrocyclic fluorine substituted indole derivatives” (The Broad Institute, Inc., priority 2017, dated 2022).
pIC50: −log10 of the molar value. “And” between values parts separate entries of the source, which are not always exact repeats. Identical values can stand only once. Like-named read-outs stand apart in the source and are kept apart here.

Key:
BCL-XL = BCL-XL (Homo sapiens (Human), UniProt Q07817); test: Protein-protein interaction assay BCL-XL/Bad BH3 peptide (BCL-XL assay), TR-FRET; type: binding; settings: median
Sequence of BCL-XL (Q07817 1-212): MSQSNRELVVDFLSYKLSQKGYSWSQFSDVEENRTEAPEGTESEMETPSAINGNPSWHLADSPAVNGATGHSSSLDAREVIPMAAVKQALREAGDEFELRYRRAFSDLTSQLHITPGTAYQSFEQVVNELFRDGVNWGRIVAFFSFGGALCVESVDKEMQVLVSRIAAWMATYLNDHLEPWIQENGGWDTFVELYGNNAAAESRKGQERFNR
Method: Assay 2 Protein-Protein Interaction Assay: BCL-XL/Bad BH3 Peptide (BCL-XL Assay)
The dose-dependent inhibition by the compounds described in this invention of the interaction between BCL-XL and the BH3 domain of Bad (both human) was determined using a steady state binding competition assay with time-resolved fluorescence energy transfer (TR-FRET) readout. For that purpose BCL-XL (amino acids 1-212, C-terminal fused to a hexahistidine (6× His) tag (SEQ ID 3) and a synthetic Bad BH3-derived peptide of sequence Biotin-PEG2-PEG2-NLWAAQRYGRELRR-Nle-SDEFVDSFKK-amide (SEQ ID 4) served as protein receptor and tracer ligand respectively. The recombinant BCL-XL protein (expressed in Ecol) was purchased from BPS Bioscience (San Diego, Calif., USA). The Bad BH3-derived peptide can be obtained from e.g. Biosyntan (Berlin, Germany).
In the assay 11 different concentrations of each compound (0.1 nM, 0.33 nM, 1.1 nM, 3.8 nM, 13 nM, 44 nM, 0.15 μM, 0.51 μM, 1.7 μM, 5.9 μM and 20 μM) were typically measured as duplicates in the same microtiter plate. For that, 100-fold concentrated DMSO solutions were prepared by serial dilutions (1:3.4) of a 2 mM stock solution in a clear, 384-well microtiter plate (Greiner Bio-One, Frickenhausen, Germany). From there, 50 nl were transferred in a dark test plate (Greiner Bio-One, Frickenhausen, Germany). The assay was initiated by addition of 2 μl of a 2,5-fold concentrated His-BCL-XL solution (usually for a 1 nM end concentration in 5 μl reaction volume) in aqueous assay buffer [50 mM Tris/HCl pH 7, 100 mM sodium chloride (NaCl), 50 μM potassium fluoride (KF), 0.005% Tween-20, 2 mM DTT, 0.1% bovine gamma globulin (BGG)] to the compounds in the assay plate. This was followed by a 10-minute incubation step at 22° C. for pre-equilibration of the putative complex between His-BCL-XL and the compounds. After that, 3 μl of a 1.67-fold concentrated solution (in assay buffer) consisting of Bad BH3-derived peptide (1 nM end concentration) and TR-FRET detection reagents [1.67 nM anti-His-Eu cryptate and 1.67 nM streptavidin-XL665 (both from Cisbio Bioassays, Codolet, France)], were added.
The mixture was incubated in the dark for one hour at 22° C. and then overnight at 4° C. The formation of BCL-XL/Bad complexes was determined by measuring the resonance energy transfer of the anti-His-Eu-cryptate antibody to the streptavidin-XL665 present in the reaction. For that purpose, the fluorescence emission at 620 nm and 665 nm after excitation at 330-350 nm was measured in a TR-FRET measuring instrument, for instance a Rubystar or a Pherastar (both from BMG Lab Technologies, Offenburg, Germany) or a Viewlux (Perkin-Elmer). The ratio of the emission at 665 nm and at 622 nm was used as indicator of the amount of BCL-XL/Bad complexes present.
The resulting data (ratio) were normalized, taking 0% inhibition as the mean value of control measurements (usually 32 data points) where all reagents were included. In this case 50 nl DMSO were used instead of compounds. A 100% inhibition corresponded to the mean value of control measurements (usually 32 data points) where all reagents except BCL-XL were included. IC50 values were determined by regression analysis based on a 4 parameter equation (minimum, maximum, IC50, Hill; Y=Max+(Min−Max)/(1+(X/IC50)^Hill) using the Screener Software (Genedata).

AMO-1 = test: Antiproliferation assay AMO-1 (Assay 7); type: cell-based; settings: AMO-1 cells, CellTiter-Glo, single determinations, read-out: IC50 Antiproli AMO-1
In short: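 Cells plated in treatment plates plus a day 0 reference plate; incubated 72 h at 37 °C; CellTiter-Glo added, 10 min incubation, luminescence read; day 0 plate read at time zero.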

| Structure (SMILES) | IC50 (BCL-XL) [µM] | pIC50 (AMO-1; 72 h) | pIC50 (AMO-1; Homo sapiens, AMO1, 72 h) |
| --- | --- | --- | --- |
| Cc1c2c(nn1C)COCCCCn1c(C(=O)O)c(CCCOc3cccc4c3CCCC4)c3ccc(F)c-2c31 (racemic) [Example 18, (rac)-13-fluoro-11,12-dimethyl-1-(3-((5,6,7,8-tetrahydronaphthalen-1-yl)oxy)propyl)-4,5,6,7,9,11-hexahydropyrazolo[4′,3′:9,10][1]oxa[6]azacycloundecino[8,7,6-hi]indole-2-carboxylic acid] | > 20 | 5.67 and 5.50 | 5.40 |
| Cc1c2c(nn1C)COCCCCn1c(C(=O)O)c(CCCOc3cccc4c3CCC4)c3ccc(F)c-2c31 (racemic) [Example 19, (rac)-1-(3-((2,3-dihydro-1H-inden-4-yl)oxy)propyl)-13-fluoro-11,12-dimethyl-4,5,6,7,9,11-hexahydropyrazolo[4′,3′:9,10][1]oxa[6]azacycloundecino[8,7,6-hi]indole-2-carboxylic acid] | > 20 | 5.39 | 5.58 |
| CCc1c2c(nn1C)COCCCCn1c(C(=O)O)c(CCCOc3cccc4c3CCCC4)c3ccc(F)c-2c31 (racemic) [Example 29, (rac)-12-ethyl-13-fluoro-11-methyl-1-(3-((5,6,7,8-tetrahydronaphthalen-1-yl)oxy)propyl)-4,5,6,7,9,11-hexahydropyrazolo[4′,3′:9,10][1]oxa[6]azacycloundecino[8,7,6-hi]indole-2-carboxylic acid] | > 20 |  | 5.61 |
| CCc1c2c(nn1C)COCCCCn1c(C(=O)O)c(CCCOc3cc(C)c(Cl)c(C)c3)c3ccc(F)c-2c31 (racemic) [Example 31, (rac)-1-(3-(4-chloro-3,5-dimethylphenoxy)propyl)-12-ethyl-13-fluoro-11-methyl-4,5,6,7,9,11-hexahydropyrazolo[4′,3′:9,10][1]oxa[6]azacycloundecino[8,7,6-hi]indole-2-carboxylic acid] | > 20 |  | < 4.48 |
| Cc1nn(C)c2c1-c1c(F)ccc3c(CCCOc4cccc5cc(F)ccc45)c(C(=O)O)n(c13)CCCCOC2 (racemic) [Example 32, (rac)-13-fluoro-1-(3-((6-fluoronaphthalen-1-yl)oxy)propyl)-10,12-dimethyl-4,5,6,7,9,10-hexahydropyrazolo[4′,3′:9,10][1]oxa[6]azacycloundecino[8,7,6-hi]indole-2-carboxylic acid] | > 20 | 5.37 | 5.40 |
| Cc1nn(C)c2c1-c1c(F)ccc3c(CCCOc4cccc5c4CCCC5)c(C(=O)O)n(c13)CCCCOC2 (racemic) [Example 34, (rac)-13-fluoro-10,12-dimethyl-1-(3-((5,6,7,8-tetrahydronaphthalen-1-yl)oxy)propyl)-4,5,6,7,9,10-hexahydropyrazolo[4′,3′:9,10][1]oxa[6]azacycloundecino[8,7,6-hi]indole-2-carboxylic acid] | > 20 |  | 5.16 |
| CCc1nn(C)c2c1-c1c(F)ccc3c(CCCOc4cccc5ccccc45)c(C(=O)O)n(c13)CCCCOC2 (racemic) [Example 37, (rac)-12-ethyl-13-fluoro-10-methyl-1-(3-(naphthalen-1-yloxy)propyl)-4,5,6,7,9,10-hexahydro-pyrazolo[4′,3′:9,10][1]oxa[6]azacycloundecino[8,7,6-hi]indole-2-carboxylic acid] | > 20 |  |  |
| CCc1nn(C)c2c1-c1c(F)ccc3c(CCCOc4cccc5c4CCCC5)c(C(=O)O)n(c13)CCCCOC2 (racemic) [Example 44, (rac)-12-ethyl-13-fluoro-10-methyl-1-(3-((5,6,7,8-tetrahydronaphthalen-1-yl)oxy)propyl)-4,5,6,7,9,10-hexahydropyrazolo[4′,3′:9,10][1]oxa[6]azacycloundecino[8,7,6-hi]indole-2-carboxylic acid] | > 20 |  | 5.13 |
| CCc1nn(C)c2c1-c1c(F)ccc3c(CCCOc4cccc5c4CCC5)c(C(=O)O)n(c13)CCCCOC2 (racemic) [Example 45, (rac)-1-(3-((2,3-dihydro-1H-inden-4-yl)oxy)propyl)-12-ethyl-13-fluoro-10-methyl-4,5,6,7,9,10-hexahydropyrazolo[4′,3′:9,10][1]oxa[6]azacycloundecino[8,7,6-hi]indole-2-carboxylic acid] | > 20 |  | 5.19 |
| CCc1nn(C)c2c1-c1c(F)ccc3c(CCCOc4cc(C)c(Cl)c(C)c4)c(C(=O)O)n(c13)CCCCOC2 (racemic) [Example 46, (rac)-1-(3-(4-chloro-3,5-dimethylphenoxy)propyl)-12-ethyl-13-fluoro-10-methyl-4,5,6,7,9,10-hexahydropyrazolo[4′,3′:9,10][1]oxa[6]azacycloundecino[8,7,6-hi]indole-2-carboxylic acid] | > 20 | 5.04 | 5.09 |
| CCc1c2c(nn1C)CN(C)CCCCn1c(C(=O)O)c(CCCOc3cccc4c3CCC4)c3ccc(F)c-2c31 (racemic) [Example 51, (rac)-7-[3-(2,3-dihydro-1H-inden-4-yloxy)propyl]-3-ethyl-4-fluoro-2,14-dimethyl-10,11,12,13,14,15-hexahydro-2H-pyrazolo[3′,4′:8,9][1,6]diazacycloundecino[10,11,1-hi]indole-8-carboxylic acid] | > 20 |  |  |
| CCc1c2c(nn1C)CN(C)CCCCn1c(C(=O)O)c(CCCOc3cccc4c3CCCC4)c3ccc(F)c-2c31 (racemic) [Example 52, (rac)-3-ethyl-4-fluoro-2,14-dimethyl-7-[3-(5,6,7,8-tetrahydronaphthalen-1-yloxy)propyl]-10,11,12,13,14,15-hexahydro-2H-pyrazolo[3′,4′:8,9][1,6]diazacycloundecino[10,11,1-hi]indole-8-carboxylic acid] | > 20 |  |  |
| CCc1c2c(nn1C)CN(C)CCCCn1c(C(=O)O)c(CCCOc3cccc4cc(F)ccc34)c3ccc(F)c-2c31 (racemic) [Example 53, (rac)-3-ethyl-4-fluoro-7-{3-[(6-fluoro-1-naphthyhoxy]propyl}-2,14-dimethyl-10,11,12,13,14,15-hexahydro-2H-pyrazolo[3′,4′:8,9][1,6]diazacycloundecino[10,11,1-hi]indole-8-carboxylic acid] | > 20 |  |  |
| CCc1c2c(nn1C)CN(C)CCCCn1c(C(=O)O)c(CCCOc3cccc4ccccc34)c3ccc(F)c-2c31 (racemic) [Example 54, (rac)-3-ethyl-4-fluoro-2,14-dimethyl-7-[3-(1-naphthyloxy)propyl]-10,11,12,13,14,15-hexahydro-2H-pyrazolo[3′,4′:8,9][1,6]diazacycloundecino[10,11,1-hi]indole-8-carboxylic acid] | > 20 |  |  |
| Cc1c2c(nn1C)COCCCCn1c(C(=O)O)c(CCCOc3ccc(F)c4ccccc34)c3ccc(F)c-2c31 (single isomer, unassigned; enantiomer 1) [Example 16, 4-fluoro-7-{3-[(4-fluoronaphthalen-1-yl)oxy]propyl}-2,3-dimethyl-2,10,11,12,13,15-hexahydro-pyrazolo[4′,3′:9,10][1,6]oxazacycloundecino[8,7,6-hi]indole-8-carboxylic acid (enantiomer 1)] | > 20 | 5.16 |  |
| CCc1c2c(nn1C)COCCCCn1c(C(=O)O)c(CCCOc3cccc4cc(F)ccc34)c3ccc(F)c-2c31 (single isomer, unassigned; enantiomer 1) [Example 24, 3-ethyl-4-fluoro-7-{3-[(6-fluoronaphthalen-1-yl)oxy]propyl}-2-methyl-2,10,11,12,13,15-hexahydropyrazolo[4′,3′:9,10][1,6]oxazacycloundecino[8,7,6-hi]indole-8-carboxylic acid (enantiomer 1)] | > 20 | 6.06 |  |
